Data as given in patent US10744122B2, “Transdermal therapeutic system containing valentonin and use thereof as a medicament” (Soeur Josefa Menendez, priority 2015, dated 2020).
Read-outs that look alike come from different tables or passages of the source.

Tests used:
[1] = Stability in acidic gastric medium; format: physicochemical
[2] = Extrapolation to humans of the PK parameter values observed in dogs; format: in vivo; settings: human, for a body weight of 64 kg in humans, extrapolated from dogs, read-out: Vdss
Source text: As the pharmacokinetic profiles, i.e., the pharmacokinetic parameter values, are identical in humans and dogs, just as in all […] animals, it is possible to extrapolate to humans the PK parameter values observed in dogs.

[3] = cited from earlier work
[4] = Stability of melatonin in frozen human plasma during freeze-thaw cycles (HPLC-MS/MS); format: in vitro ADME; settings: human plasma samples stored at about −20° C.
Experimental: Between each cycle, the samples will be maintained under storage temperature conditions (about −20° C.) identical to those used for normal analysis of the samples.

[5] = Stability of the plasma extract in the injection solvent at about +4° C.; format: physicochemical, human; settings: for Deviation T0 + 24 h/T0: stored on an autosampler
Experimental: The plasma extracts will be analyzed repeatedly during the validation period in order to check for possible degradation of the compounds during storage in the solvent at about +4° C. The evaluation of stability is based on the back-calculated concentrations, which should be within ±15% (except for LOQ±20%), and an acceptable chromatographic peak shape.

C=C1c2[nH]c3ccc(OC)cc3c2CCN1C(C)=O [Valentonin, 2-acetyl-6-methoxy-1-methylene-3,4-dihydro-β-carboline]
Stability in acidic gastric medium [1]: completely hydrolyzed in acidic gastric medium
Stability in acidic gastric medium ([1]; listed as VLT): completely degraded in acidic gastric medium
Vd ([2]; in vivo): 320 L

COc1ccc2[nH]c3c(c2c1)CCN=C3C [6-Methoxyharmalan, 6-methoxy-1-methyl-3,4-dihydro-β-carboline]
Vd ([2]; plasma, intravenous): 960 L

COc1ccc2[nH]cc(CCNC(C)=O)c2c1 [melatonin]
Maximum plasma concentrations observed from 1 a.m. onwards, mean value ([3]; 12 older subjects): 45.6 pg/mL
Maximum plasma concentrations observed from 1 a.m. onwards, mean value ([3]; 12 young subjects): 54.5 pg/mL
Effect of freeze-thaw cycles on stability [4]: no effect on the stability
Deviation T0 + 24 h/T0 ([5]; 2 pg/ml): 1.65%
Deviation T0 + 24 h/T0 ([5]; 200 pg/ml): 3.33%
Time sample extracts were stable in the injection solvent ([5]; injection vials stored at about +4° C., after the first injection): at least 24 hours
